Key:
[1] = test system: second-stage juveniles (J2) of M. incognita; assay: Bioassay against second-stage juveniles (J2) of M. incognita, 48 hours' exposure (paralysis); format: in vivo; details: for nematotoxic effect on J2 / J2 paralyzed / % paralyzed nematodes / % of paralyzed nematodes: 48 hours' exposure; for % of paralyzed nematodes: 0.25 g/L (of each compound)
Experimental: (§1) FIG. 9—(A) Bioassay showing the effect of the commercial compounds on second-stage juveniles of M. incognita after 48 hours' exposure. 1—Control dH20, 2—DECE, 3—Glycose 10%, 4—Glycose 20%, 5—D-Pinitol (80 ug), 6—D-Pinitol (150 ug), 7—L-canavanina (80 ug), 8—L-canavanina (150 ug), 9—palmitic acid (80 ug), 10—palmitic acid (150 ug), 11—citric acid (80 ug), 12—citric acid (150 ug), 13—malic acid (80 ug), 14—malic acid (150 ug), 15—cis-aconitic acid (80 ug), 16—cis-anonitic acid (150 ug), 17—trans-anonitic acid (80 ug), 18—trans-aconitic acid (150 ug), 19—50 mM Tris/HCl pH 8, 20—50 mM acetic acid pH 5, 21—L-phenylamine (80 ug), 22—L-phenylamine (150 ug), 23—L-methionine (80 ug), 24—L-methionine (150 ug), 25—L-tryptophan (80 ug), 26—L-tryptophan (150 ug), 27—S-carboxymethylcistein (80 ug), 28—S-carboxymethylcisteine (150 ug), 29—Zantotoxine (80 ug), 30—Zantotoxine (150 ug), and 31—Glucose 20%+L-canavanine (15) ug). B—Evaluation of the effect of the different commercial compounds after the recovery assay using distilled water.
(§2) FIG. 10—(A) Bioassay showing the effect of the commercial compounds and their compositions on second-stage juveniles of M. incognita (J1) after 48 hours' exposure. C+ positive control (extract); C−: negative control (water); 2: palmitic acid; 3: S-carboxymethylcisteine; 4: trans-aconitic acid; 5: glucose. […] (B)—Evaluation of the effect of the different commercial compounds and their compositions after the recovery assay using distilled water. C+ positive control (extract); 2: palmitic acid; 3: S-carboxymethylcisteine; 4: trans-aconitic acid; 5: glucose.
(§3) In this context, compounds produced commercially with biological functions identified after research in the literature and present in the nematotoxic fractions of C. ensiformis were tested in bioassay against M. incognita juveniles (FIG. 9A).

J2 of M. incognita = assay: Recovery assay using distilled water (nematicidal vs nematostatic effect); format: in vivo
Experimental: as §1, §2, §3

Row | Compound | nematotoxic effect on J2 ([1]; 80 μg/300 μL) | nematotoxic effect on J2 ([1]; 150 μg/300 μL) | J2 paralyzed ([1]; 80 μg/300 μL) | kind of effect confirmed by recovery assay (J2 of M. incognita; 80 μg/300 μL) | kind of effect confirmed by recovery assay (J2 of M. incognita; 150 μg/300 μL) | % paralyzed nematodes ([1]; 0.125 g/L (of each compound)) [%] | % paralyzed nematodes ([1]; 0.17 g/L (of each compound)) [%] | further results
1 | CO[C@H]1[C@H](O)[C@@H](O)[C@@H](O)[C@H](O)[C@@H]1O [D-pinitol] | did not exhibit any toxic effect | did not exhibit any toxic effect | – | – | – | – | – | –
2 | N=C(N)NOCC[C@H](N)C(=O)O [L-canavanine] | did not exhibit any nematotoxic activity | – | – | – | – | – | – | juveniles remained paralyzed after the recovery assay (J2 of M. incognita; 105 μg/300 μL): 25%
3 | N[C@@H](Cc1ccccc1)C(=O)O [L-phenylamnine] | not capable of affecting the J2 | not capable of affecting the J2 | – | – | – | – | – | –
4 | N[C@@H](Cc1c[nH]c2ccccc12)C(=O)O [L-triptofane] | not capable of affecting the J2 | not capable of affecting the J2 | – | – | – | – | – | –
5 | COc1c2occc2cc2ccc(=O)oc12 [Xantotoxin] | – | – | 87% | nematicidal effect | nematicidal effect | – | – | J2 paralyzed ([1]; 150 μg/300 μL): 87%
6 | O=C(O)/C=C(/CC(=O)O)C(=O)O [cis-aconitic, cis-aconitic acid] | – | – | – | – | – | – | – | nematicidal activity after the recovery assay (J2 of M. incognita; 150 μg/300 μL): 40%
7 | O=C[C@H](O)[C@@H](O)[C@H](O)[C@H](O)CO [glucose] | – | – | – | – | – | 0 | – | paralyzing of nematodes ([1]; solution 10% (W/V), 48 hours): paralyzing most of the nematodes; kind of activity confirmed by recovery assay (J2 of M. incognita; solution 10% (W/V)): nematostatic activity
8 | CCCCCCCCCCCCCCCC(=O)O [palmitic acid] | – | – | – | nematostatic effect | nematostatic effect | <7.66 | 7.66 | % of paralyzed nematodes [1]: 33.86%
9 | O=C(O)/C=C(\CC(=O)O)C(=O)O [trans-aconitic acid] | – | – | 90% | – | – | <11.12 | 11.12 | % of paralyzed nematodes [1]: 27.08%; nematicidal activity after the recovery assay (J2 of M. incognita; 150 μg/300 μL): 98%
10 | S-carboxymethylcisteine | – | – | about 90% | nematostatic effect | nematostatic effect | <43.03 | 43.03 | J2 paralyzed ([1]; 150 μg/300 μL): about 90%

— patent US9750247B2, “Nematotoxic composition of synergistic effect, use of a nematotoxic composition of synergistic effect” (EMPRESA BRASILEIRA DE PESQUISA AGROPECUARIA—EMBRAPA, priority 2012, dated 2017)
